Test results published in patent US9233946B2, “Sulfonamide compounds” (KANCERA AB, priority 2010, dated 2016).

System: PANC-1 cells
Test: Quantification of F-2,6-P2 in PANC-1 cells
Type: cell-based
Conditions: Homo sapiens; for IC50: PANC-1, read-out: IC50 based on quantification of F-2,6-P2; for inhibition at 12.5 µM: at 12.5 μM in PANC-1 cells
Text: The relative kinase (formation) and phosphatase (degradation) activities of the bi-functional enzymes PFKFB3 and PFKFB4 control the intracellular levels of the regulator F-2,6-P2, which acts as an allosteric activator of glycolysis. The levels of F-2,6-P2 have been determined in three different cancer cell lines (MCF-7, PANC-1 and NUGC-3) using the van Shaftingen assay. The assay protocols described under “Methods for measurement of enzymatic activity of PFKFB3 and PFKFB4, Method A” have been adapted for the measurement of the inhibitory effect of compounds on the kinase activity of the various isoforms of the bifunctional enzyme (endogenously expressed) in the different cell lines. The modifications are described in the protocol below. All reagents were purchased from commercial sources or prepared inhouse.
Cell Line B (PANC-1, Human Pancreatic Carcinoma Cell Line)
• Cells: PANC-1 (ATCC-CRL-1469). Lot. no: 58564651. • Growth medium: Dulbecco's Modified Eagle's Medium, DMEM, ATCC-30-2002 10% FBS, Invitrogen, 10106-169
Cells were seeded at a concentration of 250 000 cells/mL in 100 μL growth medium (25 000 cells/well)
Starvation medium: DMEM/F12 without phenol red and glucose free, SVA, 991373 0.25% FBS, Invitrogen, 10106-169
Induction medium: DMEM/F12 without phenol red and glucose free, SVA, 991373 0.25% FBS, Invitrogen, 10106-169 (same as starvation medium)
Cells were seeded in 96-well Corning Costar tissue culture plates (CLS3595, Sigma-Aldrich) using the concentrations specified above for the three different cell lines A-C and incubated over night at 37° C. and 5% CO2. Row A was left empty. Next day the growth medium was discarded and replaced with 100 μL starvation medium. The plates were incubated for 18 h at 37° C. and 5% CO2. After 18 h of starvation the cells were induced with 100 μL compound or control solutions. Compounds were either tested in two concentrations (50 μM and 10 μM) or in dose response curves starting from 50 μM and the final DMSO concentration in assay plates was 0.5%. Also a dose response curve of a reference inhibitor was included in row H on each plate. All compounds were tested in duplicate plates. Compounds (in 96 well CLS 3365, Sigma-Aldrich) were serial diluted in DMSO from 10 mM compound DMSO stock solutions with Janus (automated liquid handling workstation from PerkinElmer). 5 μL were transferred to a Greiner deep well plate (736-0155, VWR) with 495 μL starvation medium. The final start concentration of compounds in the dilution plate was 100 μM, 1% DMSO. For compounds tested as single points, 10 mM compound solutions were diluted five fold in DMSO to 2 mM, followed by the transfer of 5 μL to separate dilution plates with 495 μL starvation medium. The final concentration of compounds in these dilution plates were 100 or 20 μM, respectively, and final concentration of DMSO was 1%. The plates were incubated at 37° C. and 5% CO2 for 1 h, followed by the addition of 10 μL 20 mM D-glucose in starvation medium. Controls, with and without 1 mM glucose, were included in row B. The final assay volume was 210 μL per well. After 2 h of incubation at 37° C. and 5% CO2, supernatants were discarded and the cells were lysed by the addition of 25 μL 250 mM NaOH. The plates were incubated at 37° C. and 5% CO2 for 5 min followed by an addition of 75 μL MilliQ dH2O. The supernatants were further diluted with 210 μL MilliQ dH2O to a final concentration of 20 mM NaOH. 200 μL were transferred to NUNC 96-well plates (7322661, VWR) and the plates were sealed and stored at −20° C. until analysis.
The amount of F-2,6-P2 was quantified based on the coupled enzymatic reaction described by Van Schaftingen. If necessary the samples were further diluted in 20 mM NaOH before quantification. Plates stored at −20° C. were thawed and the F-2,6-P2 quantification was initiated by transferring 40 μL from each well of the NUNC plate to the corresponding position in a trans-parent 96-well SpectraPlate-MB (6005649, PerkinElmer). […]

IC50 | Structure (SMILES) | inhibition at 12.5 µM
7 µM | COC(=O)Cn1nnc(-c2cccc(NS(=O)(=O)c3sc4ccc(C(C)C)cc4c3C)c2)n1 [Example 119, Methyl {5-[3-({[3-methyl-5-(1-methylethyl)-1-benzothiophen-2-yl]sulfonyl}amino)phenyl]-2H-tetrazol-2-yl}acetate] | –
3.5 µM | COC(=O)c1cccc(NS(=O)(=O)c2sc3ccc(Br)cc3c2C)c1 [Example 120, Methyl 3-{[(5-bromo-3-methyl-1-benzothiophen-2-yl)sulfonyl]amino}benzoate] | –
5.4 µM | COC(=O)c1cccc(NS(=O)(=O)c2ccc(-c3csc(C)n3)s2)c1 [Example 88, Methyl 3-({[5-(2-methyl-1,3-thiazol-4-yl)-2-thienyl]sulfonyl}amino)benzoate] | –
– | COC(=O)c1cccc(NS(=O)(=O)c2oc3ccc(C(C)C)cc3c2C)c1 [Example 123, Methyl 3-({[3-methyl-5-(1-methylethyl)-1-benzofuran-2-yl]sulfonyl}amino)benzoate] | > 50%
9 µM | COC(=O)c1cccc(NS(=O)(=O)c2sc3c(OC)cccc3c2C)c1 [Example 121, Methyl 3-{[(7-methoxy-3-methyl-1-benzothiophen-2-yl)sulfonyl]amino}benzoate] | –
1.3 µM | Cc1c(S(=O)(=O)Nc2cccc(C(=O)OC3CCOC3)c2)sc2ccc(Cl)cc12 (stereo not drawn) [Example 116, Tetrahydrofuran-3-yl 3-{[(5-chloro-3-methyl-1-benzothiophen-2-yl)sulfonyl]amino}benzoate] | –
7.5 µM | Cc1c(S(=O)(=O)Nc2cccc(-c3nnn[nH]3)c2)sc2ccc(C(C)C)cc12 [Example 4, 5-Isopropyl-3-methyl-N-[3-(1H-tetrazol-5-yl)phenyl]benzothiophene-2-sulfonamide] | –
– | CCCCCOC(=O)c1cccc(NS(=O)(=O)c2sc3ccc(Cl)cc3c2C)c1 [Example 113, Pentyl 3-{[(5-chloro-3-methyl-1-benzothiophen-2-yl)sulfonyl]amino}benzoate] | > 50%
3.1 µM | Cc1c(S(=O)(=O)Nc2cccc(C(=O)OC(C)C)c2)sc2ccc(Cl)cc12 [Example 108, Isopropyl 3-{[(5-chloro-3-methyl-1-benzothien-2-yl)sulfonyl]amino}benzoate] | –
– | COCCOC(=O)c1cccc(NS(=O)(=O)c2sc3ccc(Cl)cc3c2C)c1 [Example 109, 2-Methoxyethyl 3-{[(5-chloro-3-methyl-1-benzothiophen-2-yl)sulfonyl]amino}benzoate] | > 50%
2.8 µM | Cc1c(S(=O)(=O)Nc2cccc(C(=O)OCCCN(C)C)c2)sc2ccc(Cl)cc12 [Example 118, 3-(Dimethylamino)propyl 3-{[(5-chloro-3-methyl-1-benzothiophen-2-yl)sulfonyl]amino}benzoate] | –
– | CCOC(=O)c1sc(NS(=O)(=O)c2cc(-c3cc(F)ccc3F)c(Cl)s2)nc1C [Example 127, Ethyl 2-({[5-chloro-4-(2,5-difluorophenyl)thiophen-2-yl]sulfonyl}amino)-4-methyl-1,3-thiazole-5-carboxylate] | > 50%
– | Cc1c(S(=O)(=O)Nc2cccc(C(=O)OCCn3cccc3)c2)sc2ccc(Cl)cc12 [Example 106, 2-(1H-Pyrrol-1-yl)ethyl 3-{[(5-chloro-3-methyl-1-benzothien-2-yl)sulfonyl]amino}benzoate] | > 50%
– | CCOC(=O)c1cccc(NS(=O)(=O)c2sc3ccc(Cl)cc3c2C)c1 [Example 107, Ethyl 3-{[(5-chloro-3-methyl-1-benzothien-2-yl)sulfonyl]amino}benzoate] | > 50%
– | Cc1c(S(=O)(=O)Nc2cccc(C(=O)OCc3ccccc3)c2)sc2ccc(Cl)cc12 [Example 111, Benzyl 3-{[(5-chloro-3-methyl-1-benzothiophen-2-yl)sulfonyl]amino}benzoate] | > 50%
– | Cc1c(S(=O)(=O)Nc2cccc(C(=O)OCC3CCOC3)c2)sc2ccc(Cl)cc12 (stereo not drawn) [Example 117, Tetrahydrofuran-3-ylmethyl 3-{[(5-chloro-3-methyl-1-benzothiophen-2-yl)sulfonyl]amino}benzoate] | > 50%
– | Cc1c(S(=O)(=O)Nc2cccc(C(=O)Oc3ccccc3)c2)sc2ccc(Cl)cc12 [Example 115, Phenyl 3-{[(5-chloro-3-methyl-1-benzothiophen-2-yl)sulfonyl]amino}benzoate] | > 50%
0.5 µM | COC(=O)c1cccc(NS(=O)(=O)c2sc3ccc(C(C)C)cc3c2C)c1 [Example 92, Methyl 3-({[3-methyl-5-(1-methylethyl)-1-benzothiophen-2-yl]sulfonyl}amino)benzoate] | –
8.7 µM | COC(=O)c1cccc(NS(=O)(=O)c2sc3c(Cl)cccc3c2C)c1 [Example 122, Methyl 3-{[(7-chloro-3-methyl-1-benzothiophen-2-yl)sulfonyl]amino}benzoate] | –
– | CCOC(=O)c1sc(NS(=O)(=O)c2sc3ccc(Cl)cc3c2C)nc1C [Example 126, Ethyl 2-{[(5-chloro-3-methyl-1-benzothiophen-2-yl)sulfonyl]amino}-4-methyl-1,3-thiazole-5-carboxylate] | > 50%
4.3 µM | CCCOC(=O)c1cccc(NS(=O)(=O)c2sc3ccc(Cl)cc3c2C)c1 [Example 112, Propyl 3-{[(5-chloro-3-methyl-1-benzothien-2-yl)sulfonyl]amino}benzoate] | –
